Counter-ions that a name gives are not always drawn.
These compounds were tested against T1, S1P1 receptor (S1P1 expressing RH7777 membranes) (Homo sapiens, UniProt P21453) (assay: S1P1 GTPγS assay). Settings: tested in one of the above S1P1 assays (two GTPγS formats).
T1 construct: expressed in transfected cells; host or cells: RH7777 cells (membranes)
Format: biochemical
Method: The potencies and efficacies of the compounds of this invention for the S1P1 receptor can be determined by GTPγS assay performed on the human cloned receptor as described herein.
Membrane preparation for S1P1 GTPγS assay
All steps were performed at 4° C. Cells were homogenised within a glass Waring blender for 2 bursts of 15 secs in 200 mls of buffer (50 mM HEPES, 1 mM leupeptin, 25 μg/ml bacitracin, 1 mM EDTA, 1 mM PMSF, 2 μM pepstatin A). The blender was plunged into ice for 5 mins after the first burst and 10-40 mins after the final burst to allow foam to dissipate. The material was then spun at 500 g for 20 mins and the supernatant spun for 36 mins at 48,000 g. The pellet was resuspended in the same buffer as above but without PMSF and pepstatin A. The material was then forced through a 0.6 mm needle, made up to the required volume, (usually x4 the volume of the original cell pellet), aliquoted and stored frozen at −80° C.
S1P1 expressing RH7777 membranes (1.5 μg/well) membranes (1.5 μg/well) were homogenised by passing through a 23 G needle. These were then adhered to WGA-coated SPA beads (0.125 mg/well) in assay buffer (HEPES 20 mM, MgCl2 10 mM, NaCl 100 mM and pH adjusted to 7.4 using KOH 5M). GDP 10 μM FAC and saponin 90 μg/ml FAC were also added
After 30 minutes precoupling on ice, the bead and membrane suspension was dispensed into white Greiner polypropylene LV 384-well plates (5 μl/well), containing […] of compound. 5 μl/well [^35S]-GTPγS (0.5 nM for S1P1 or 0.3 nM for S1P3 final radioligand concentration) made in assay buffer was then added to the plates. The final assay cocktail (10.1 μl) was then sealed, spun on a centrifuge, then read immediately on a Viewlux instrument.
Alternatively, after 30 minutes precoupling on ice, the bead and membrane suspension was mixed with ^35S]-GTPγS (0.5 nM final radioligand concentration) in assay buffer (HEPES 20 mM, MgCl2 10 mM, NaCl 100 mM and pH adjusted to 7.4 using KOH 5M) in a 1:1 ratio. The bead, membrane and radioligand suspension was dispensed into white Greiner polypropylene low volume 384-well plates (10 μl/well), containing 0.1 μl of a solution of test compound in 100% DMSO. The final assay cocktail (10.1 μl) was then sealed, spun on a centrifuge, then read immediately on a Viewlux instrument.

T1 sequence (P21453 whole entry): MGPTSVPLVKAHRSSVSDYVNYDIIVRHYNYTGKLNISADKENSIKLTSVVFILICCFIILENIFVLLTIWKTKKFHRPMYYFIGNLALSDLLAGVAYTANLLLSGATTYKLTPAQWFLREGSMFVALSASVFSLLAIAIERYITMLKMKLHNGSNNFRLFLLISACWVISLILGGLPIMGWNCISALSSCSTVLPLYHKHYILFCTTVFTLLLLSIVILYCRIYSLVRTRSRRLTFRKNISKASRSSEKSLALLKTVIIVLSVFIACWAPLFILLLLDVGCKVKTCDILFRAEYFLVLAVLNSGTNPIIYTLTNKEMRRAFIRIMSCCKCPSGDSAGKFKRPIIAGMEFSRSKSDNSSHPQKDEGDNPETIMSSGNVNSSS

Question: For CCCOc1ccc(-c2nc(-c3ccc4c(c3)CCN(CC(O)CO)CC4)no2)cc1C#N (stereo not shown) [Example 51, 5-{3-[3-(2,3-dihydroxypropyl)-2,3,4,5-tetrahydro-1H-3-benzazepin-7-yl]-1,2,4-oxadiazol-5-yl}-2-(propyloxy)benzonitrile], which EC50 is on record?
Answer: ≤ 100 nM

Question: Which EC50 does the source give for CC(C)Nc1ccc(-c2nc(-c3ccc4c(c3)CCN(C(=O)CN)CC4)no2)cc1C#N [Example 52, 5-[3-(3-glycyl-2,3,4,5-tetrahydro-1H-3-benzazepin-7-yl)-1,2,4-oxadiazol-5-yl]-2-[(1-methylethyl)amino]benzonitrile] here?
Answer: ≤ 100 nM

Question: CCCNc1ccc(-c2nc(-c3ccc4c(c3)CCN(C(=O)CN)CC4)no2)cc1C#N [Example 53, 5-[3-(3-glycyl-2,3,4,5-tetrahydro-1H-3-benzazepin-7-yl)-1,2,4-oxadiazol-5-yl]-2-(propylamino)benzonitrile] was tested. Which EC50 did it give?
Answer: ≤ 100 nM

Question: N#Cc1cc(-c2nc(-c3ccc4c(c3)CCN(CC(O)CO)CC4)no2)ccc1N1CCC(F)C1 (stereo not shown) [Example 55, 5-{3-[3-(2,3-dihydroxypropyl)-2,3,4,5-tetrahydro-1H-3-benzazepin-7-yl]-1,2,4-oxadiazol-5-yl}-2-(3-fluoro-1-pyrrolidinyl)benzonitrile] was tested. Which EC50 did it give?
Answer: ≤ 1000 nM

Question: How did the EC50 turn out when N#Cc1cc(-c2nc(-c3ccc4c(c3)CCN(C(=O)CN)CC4)no2)ccc1N1CCC(F)C1 (stereo not shown) [Example 57, 2-(3-fluoro-1-pyrrolidinyl)-5-[3-(3-glycyl-2,3,4,5-tetrahydro-1H-3-benzazepin-7-yl)-1,2,4-oxadiazol-5-yl]benzonitrile] was run?
Answer: ≤ 1000 nM

Question: Which EC50 does the source give for CC(C)Oc1ccc(-c2nc(-c3ccc4c(c3)CCN(C(=O)[C@H](N)[C@@H](C)O)CC4)no2)cc1C#N [Example 58, 5-[3-(3-D-allothreonyl-2,3,4,5-tetrahydro-1H-3-benzazepin-7-yl)-1,2,4-oxadiazol-5-yl]-2-[(1-methylethyl)oxy]benzonitrile] here?
Answer: ≤ 100 nM

Question: For CC(C)Oc1ccc(-c2nc(-c3ccc4c(c3)CCN(C(=O)[C@@H](N)[C@@H](C)O)CC4)no2)cc1C#N [Example 59, 2-[(1-methylethyl)oxy]-5-[3-(3-L-threonyl-2,3,4,5-tetrahydro-1H-3-benzazepin-7-yl)-1,2,4-oxadiazol-5-yl]benzonitrile], which EC50 is on record?
Answer: ≤ 100 nM

Question: N#Cc1cc(-c2nc(-c3ccc4c(c3)CCN(CC(O)CO)CC4)no2)ccc1OC(CF)CF (stereo not shown) [Example 60, 5-{3-[3-(2,3-dihydroxypropyl)-2,3,4,5-tetrahydro-1H-3-benzazepin-7-yl]-1,2,4-oxadiazol-5-yl}-2-{[2-fluoro-1-(fluoromethyl)ethyl]oxy}benzonitrile] was tested. Which EC50 did it give?
Answer: ≤ 100 nM

Question: Which EC50 does the source give for CCOc1ccc(-c2nc(-c3ccc4c(c3)CCN(C(=O)CN)CC4)no2)cc1C#N [Example 61, 2-(ethyloxy)-5-[3-(3-glycyl-2,3,4,5-tetrahydro-1H-3-benzazepin-7-yl)-1,2,4-oxadiazol-5-yl]benzonitrile] here?
Answer: ≤ 100 nM

Question: For CCCOc1ccc(-c2nc(-c3ccc4c(c3)CCN(C(=O)CN)CC4)no2)cc1C#N [Example 62, 5-[3-(3-glycyl-2,3,4,5-tetrahydro-1H-3-benzazepin-7-yl)-1,2,4-oxadiazol-5-yl]-2-(propyloxy)benzonitrile], which EC50 is on record?
Answer: ≤ 100 nM

Question: CC(C)Oc1ccc(-c2nc(-c3ccc4c(c3)CCN(C(=O)CCCN)CC4)no2)cc1C#N [Example 63, 5-{3-[3-(4-aminobutanoyl)-2,3,4,5-tetrahydro-1H-3-benzazepin-7-yl]-1,2,4-oxadiazol-5-yl}-2-[(1-methylethyl)oxy]benzonitrile] was tested. Which EC50 did it give?
Answer: ≤ 100 nM

Question: With Cc1c(-c2noc(-c3ccc(OC(C)C)c(C#N)c3)n2)ccc2c1CCN(C(CO)CO)C2 [Example 65, 5-(3-{2-[2-hydroxy-1-(hydroxymethyl)ethyl]-5-methyl-1,2,3,4-tetrahydro-6-isoquinolinyl}-1,2,4-oxadiazol-5-yl)-2-[(1-methylethyl)oxy]benzonitrile] as the compound, how does the EC50 read?
Answer: ≤ 1000 nM

Question: Which EC50 does the source give for Cc1c(-c2noc(-c3ccc(OC(C)C)c(C#N)c3)n2)ccc2c1CCN(C(CO)CO)C2 [Example 66, 5-(3-{2-[2-hydroxy-1-(hydroxymethyl)ethyl]-5-methyl-1,2,3,4-tetrahydro-6-isoquinolinyl}-1,2,4-oxadiazol-5-yl)-2-[(1-methylethyl)oxy]benzonitrile hydrochloride] here?
Answer: ≤ 100 nM

Question: How did the EC50 turn out when CNCCCC(=O)N1CCc2ccc(-c3noc(-c4ccc(OC(C)C)c(C#N)c4)n3)cc2CC1 [Example 83, 5-(3-{3-[4-(methylamino)butanoyl]-2,3,4,5-tetrahydro-1H-3-benzazepin-7-yl}-1,2,4-oxadiazol-5-yl)-2-[(1-methylethyl)oxy]benzonitrile] was run?
Answer: ≤ 1000 nM

Question: For CC(C)Oc1ccc(-c2nc(-c3ccc4c(c3)CCN(C(=O)[C@](C)(N)CO)CC4)no2)cc1C#N [Example 84, 2-[(1-methylethyl)oxy]-5-{3-[3-(2-methyl-D-seryl)-2,3,4,5-tetrahydro-1H-3-benzazepin-7-yl]-1,2,4-oxadiazol-5-yl}benzonitrile], which EC50 is on record?
Answer: ≤ 1000 nM

Question: How did the EC50 turn out when Cc1c(-c2noc(-c3ccc(OC(C)C)c(C#N)c3)n2)ccc2c1CCN(C(=O)[C@](C)(N)CO)C2 [Example 85, 2-[(1-methylethyl)oxy]-5-{3-[5-methyl-2-(2-methyl-D-seryl)-1,2,3,4-tetrahydro-6-isoquinolinyl]-1,2,4-oxadiazol-5-yl}benzonitrile] was run?
Answer: ≤ 100 nM

Question: Which EC50 does the source give for CC(C)Oc1ccc(-c2nc(-c3ccc4c(c3)CCN(C(=O)CNCCO)CC4)no2)cc1C#N [Example 86, 5-(3-{3-[N-(2-hydroxyethyl)glycyl]-2,3,4,5-tetrahydro-1H-3-benzazepin-7-yl}-1,2,4-oxadiazol-5-yl)-2-[(1-methylethyl)oxy]benzonitrile hydrochloride] here?
Answer: ≤ 100 nM

Question: How did the EC50 turn out when CC(C)Oc1ccc(-c2nc(-c3ccc4c(c3)CCN(C(=O)CN3CCOCC3)CC4)no2)cc1C#N [Example 91, 2-[(1-methylethyl)oxy]-5-{3-[3-(4-morpholinylacetyl)-2,3,4,5-tetrahydro-1H-3-benzazepin-7-yl]-1,2,4-oxadiazol-5-yl}benzonitrile hydrochloride] was run?
Answer: ≤ 1000 nM

Question: N#Cc1cc(-c2nc(-c3ccc4c(c3)CCN(C(=O)CN)CC4)no2)ccc1N1CC(F)C1 [Example 94, 2-(3-fluoro-1-azetidinyl)-5-[3-(3-glycyl-2,3,4,5-tetrahydro-1H-3-benzazepin-7-yl)-1,2,4-oxadiazol-5-yl]benzonitrile] was tested. Which EC50 did it give?
Answer: ≤ 1000 nM

Question: With CC(C)Oc1ncc(-c2nc(-c3ccc4c(c3)CCN(C(CO)CO)CC4)no2)cc1C#N [Example 95, 5-(3-{3-[2-hydroxy-1-(hydroxymethyl)ethyl]-2,3,4,5-tetrahydro-1H-3-benzazepin-7-yl}-1,2,4-oxadiazol-5-yl)-2-[(1-methylethyl)oxy]-3-pyridinecarbonitrile] as the compound, how does the EC50 read?
Answer: ≤ 10 nM

Question: How did the EC50 turn out when CC(C)Oc1ncc(-c2nc(-c3ccc4c(c3)CCN(C[C@H](O)CO)CC4)no2)cc1C#N [Example 96, 5-(3-{3-[(2S)-2,3-dihydroxypropyl]-2,3,4,5-tetrahydro-1H-3-benzazepin-7-yl}-1,2,4-oxadiazol-5-yl)-2-[(1-methylethyl)oxy]-3-pyridinecarbonitrile] was run?
Answer: ≤ 10 nM

Question: How did the EC50 turn out when CC(C)Oc1ccc(-c2nc(-c3ccc4c(c3)CCN(C(=O)CN[C@H](C)CO)CC4)no2)cc1C#N [Example 98, 5-[3-(3-{N-(1R)-2-hydroxy-1-methylethyl]glycyl}-2,3,4,5-tetrahydro-1H-3-benzazepin-7-yl)-1,2,4-oxadiazol-5-yl]-2-[(1-methylethyl)oxy]benzonitrile hydrochloride] was run?
Answer: ≤ 10 nM

Question: How did the EC50 turn out when CC(C)Oc1ccc(-c2nc(-c3ccc4c(c3)CCN(C(=O)CN[C@@H](C)CO)CC4)no2)cc1C#N [Example 99, 5-[3-(3-{N-[(1S)-2-hydroxy-1-methylethyl]glycyl}-2,3,4,5-tetrahydro-1H-3-benzazepin-7-yl)-1,2,4-oxadiazol-5-yl]-2-[(1-methylethyl)oxy]benzonitrile hydrochloride] was run?
Answer: ≤ 10 nM

Question: With CC(=O)NCCN1CCc2ccc(-c3noc(-c4ccc(OC(C)C)c(C#N)c4)n3)cc2CC1 [Example 101, N-{2-[7-(5-{3-cyano-4-[(1-methylethyl)oxy]phenyl}-1,2,4-oxadiazol-3-yl)-1,2,4,5-tetrahydro-3H-3-benzazepin-3-yl]ethyl}acetamide] as the compound, how does the EC50 read?
Answer: ≤ 10 nM

Question: Which EC50 does the source give for COC(=O)NCCCN1CCc2ccc(-c3noc(-c4ccc(OC(C)C)c(C#N)c4)n3)cc2CC1 [Example 102, methyl {3-[7-(5-{3-cyano-4-[(1-methylethyl)oxy]phenyl}-1,2,4-oxadiazol-3-yl)-1,2,4,5-tetrahydro-3H-3-benzazepin-3-yl]propyl}carbamate] here?
Answer: ≤ 1000 nM

Source: patent US20120101083A1, “S1P1 AGONISTS COMPRISING A BICYCLIC N-CONTAINING RING” (GLAXO GROUP LIMITED, priority 2009, published 2012)
